{
  "source": "patent US7851638B2",
  "about": "“Cyclohexanesulfonyl derivatives as GLYT1 inhibitors to treat schizophrenia” (Merck Sharp & Dohme Limited, priority 2005, dated 2010)",
  "data": [
    {"smiles": "Cc1nc(C(F)(F)F)ccc1C(=O)NCC1(CC2CC2)CCC(S(=O)(=O)CC2CC2)CC1", "note": "(stereo not shown) [Example 3, N-(4-Cyclopropylmethanesulfonyl-1-cyclopropylmethyl-cyclohexylmethyl)-2-methyl-6-trifluoromethyl-nicotinamide]", "values": [
      {"measurement": "melting point", "value": "148 to 151", "unit": "°C"}
    ]}
  ]
}
